{"source": "ChEMBL document CHEMBL1201862", "about": "“PubChem BioAssay data set” (2004)", "key": {"H9c2": {"system": "H9c2", "assay": "cells", "assay_type": "functional, cell-based", "conditions": "Rattus norvegicus, H9c2, Myocardium"}, "Leucine aminopeptidase": {"target": "T1, Leucine aminopeptidase (Plasmodium falciparum 3D7, UniProt Q8IL11)", "T1 sequence (Q8IL11 whole entry)": "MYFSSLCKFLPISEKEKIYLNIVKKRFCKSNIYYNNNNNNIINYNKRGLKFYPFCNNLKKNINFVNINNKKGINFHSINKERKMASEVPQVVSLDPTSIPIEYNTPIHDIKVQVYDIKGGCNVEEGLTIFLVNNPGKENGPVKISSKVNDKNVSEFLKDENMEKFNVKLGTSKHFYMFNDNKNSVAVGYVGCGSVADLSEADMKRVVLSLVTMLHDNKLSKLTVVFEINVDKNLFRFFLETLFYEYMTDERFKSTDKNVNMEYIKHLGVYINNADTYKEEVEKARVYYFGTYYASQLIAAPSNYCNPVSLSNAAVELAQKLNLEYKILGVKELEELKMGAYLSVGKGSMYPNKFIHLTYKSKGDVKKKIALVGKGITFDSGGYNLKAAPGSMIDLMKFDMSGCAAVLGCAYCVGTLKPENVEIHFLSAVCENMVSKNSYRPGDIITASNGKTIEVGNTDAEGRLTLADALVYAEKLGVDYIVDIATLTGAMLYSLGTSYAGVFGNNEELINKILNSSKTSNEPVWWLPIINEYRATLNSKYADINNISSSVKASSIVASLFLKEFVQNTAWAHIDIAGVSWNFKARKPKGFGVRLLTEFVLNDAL", "assay": "P. falciparum M17LAP inhibitors, primary screen, biochemical, fluorogenic H-Leu-NHMec substrate, 1536-well (AID 1619)", "assay_type": "functional"}, "[1]": {"assay": "viability of uninfected HEp-2 cells – cell-based, HTS, cytotoxicity control for RSV inhibitor project, dose response (AID 2410)", "assay_type": "functional", "conditions": "human respiratory syncytial virus"}, "[2]": {"assay": "growth inhibition of yeast DHODH-expressing 3D7 parasites – SYBR Green, dry powder samples, dose response (AID 1159570);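 further: parasite growth measured after 72 hours of compound exposure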", "assay_type": "functional, cell-based"}, "[3]": {"assay": "P. falciparum Dd2 growth inhibitors, dose response, SYBR Green, cherry-picked samples (AID 1159567)", "assay_type": "functional, cell-based"}, "[4]": {"assay": "Dd2 malaria parasite growth inhibition potency – SYBR Green, dry powder samples, dose response (AID 1159566);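 further: potency for growth inhibition with lower SYBR green DNA signal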", "assay_type": "functional, cell-based"}, "[5]": {"assay": "growth inhibition of PfATP4-mutant resistant parasites – NITD609-resistant line, SYBR Green, dry powder, dose response (AID 1159571);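 further: parasites synchronized at ring stage by sorbitol before testing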", "assay_type": "functional, cell-based"}, "P388/ADR": {"system": "P388/ADR", "assay": "cells", "assay_type": "functional", "conditions": "Mus musculus"}, "SN12K1": {"system": "SN12K1", "assay": "cells", "assay_type": "functional", "conditions": "Homo sapiens"}, "P388": {"system": "P388", "assay": "cells", "assay_type": "functional", "conditions": "Mus musculus"}, "[6]": {"target": "Glyceraldehyde-3-phosphate dehydrogenase (Homo sapiens, UniProt P04406)", "sequence (P04406 whole entry)": "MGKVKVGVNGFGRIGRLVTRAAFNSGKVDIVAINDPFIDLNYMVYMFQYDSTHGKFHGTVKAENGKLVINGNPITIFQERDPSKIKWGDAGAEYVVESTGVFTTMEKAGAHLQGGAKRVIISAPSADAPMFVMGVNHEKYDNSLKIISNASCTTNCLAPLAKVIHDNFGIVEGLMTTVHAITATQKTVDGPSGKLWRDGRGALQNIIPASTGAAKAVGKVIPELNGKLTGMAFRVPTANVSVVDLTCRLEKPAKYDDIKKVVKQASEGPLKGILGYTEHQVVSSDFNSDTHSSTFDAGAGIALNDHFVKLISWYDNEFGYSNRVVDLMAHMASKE"}, "Large T antigen": {"target": "Large T antigen (Simian virus 40, UniProt P03070)", "sequence (P03070 whole entry)": "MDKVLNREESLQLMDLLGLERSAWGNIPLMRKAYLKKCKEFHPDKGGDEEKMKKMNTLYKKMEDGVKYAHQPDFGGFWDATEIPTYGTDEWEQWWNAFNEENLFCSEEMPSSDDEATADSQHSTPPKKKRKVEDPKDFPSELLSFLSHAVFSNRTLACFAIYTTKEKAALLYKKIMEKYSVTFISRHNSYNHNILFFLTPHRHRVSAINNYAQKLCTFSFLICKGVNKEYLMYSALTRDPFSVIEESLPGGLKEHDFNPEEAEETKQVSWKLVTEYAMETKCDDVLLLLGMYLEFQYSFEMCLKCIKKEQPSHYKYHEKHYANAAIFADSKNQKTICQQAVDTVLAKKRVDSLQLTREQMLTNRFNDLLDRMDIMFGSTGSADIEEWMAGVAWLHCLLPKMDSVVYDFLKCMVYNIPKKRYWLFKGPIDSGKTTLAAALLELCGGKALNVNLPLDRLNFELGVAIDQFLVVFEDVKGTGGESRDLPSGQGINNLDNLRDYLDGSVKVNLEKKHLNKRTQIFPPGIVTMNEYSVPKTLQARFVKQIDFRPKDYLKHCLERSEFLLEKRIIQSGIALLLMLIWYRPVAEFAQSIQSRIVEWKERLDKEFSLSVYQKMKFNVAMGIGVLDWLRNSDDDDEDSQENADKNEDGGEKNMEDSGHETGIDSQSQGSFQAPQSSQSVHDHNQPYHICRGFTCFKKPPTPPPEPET", "assay_type": "functional, Betapolyomavirus macacae"}, "Cytochrome P450 2D6": {"target": "Cytochrome P450 2D6 (Homo sapiens, UniProt P10635)", "sequence (P10635 whole entry)": "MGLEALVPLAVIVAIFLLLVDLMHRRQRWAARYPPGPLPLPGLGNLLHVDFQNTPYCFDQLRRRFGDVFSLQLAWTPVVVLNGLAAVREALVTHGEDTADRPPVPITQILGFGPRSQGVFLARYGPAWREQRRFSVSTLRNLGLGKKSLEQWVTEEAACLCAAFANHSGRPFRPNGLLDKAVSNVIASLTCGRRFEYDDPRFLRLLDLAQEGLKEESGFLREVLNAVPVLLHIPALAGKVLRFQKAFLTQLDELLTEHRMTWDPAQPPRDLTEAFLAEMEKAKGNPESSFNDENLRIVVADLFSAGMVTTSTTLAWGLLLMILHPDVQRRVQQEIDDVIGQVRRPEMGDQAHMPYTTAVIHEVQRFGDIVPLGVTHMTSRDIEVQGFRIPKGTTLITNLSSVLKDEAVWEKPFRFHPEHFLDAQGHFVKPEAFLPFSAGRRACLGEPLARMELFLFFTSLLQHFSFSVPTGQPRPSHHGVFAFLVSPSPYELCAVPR"}, "[7]": {"target": "T2, Mannose-6-phosphate isomerase (Homo sapiens, UniProt P34949)", "T2 sequence (P34949 whole entry)": "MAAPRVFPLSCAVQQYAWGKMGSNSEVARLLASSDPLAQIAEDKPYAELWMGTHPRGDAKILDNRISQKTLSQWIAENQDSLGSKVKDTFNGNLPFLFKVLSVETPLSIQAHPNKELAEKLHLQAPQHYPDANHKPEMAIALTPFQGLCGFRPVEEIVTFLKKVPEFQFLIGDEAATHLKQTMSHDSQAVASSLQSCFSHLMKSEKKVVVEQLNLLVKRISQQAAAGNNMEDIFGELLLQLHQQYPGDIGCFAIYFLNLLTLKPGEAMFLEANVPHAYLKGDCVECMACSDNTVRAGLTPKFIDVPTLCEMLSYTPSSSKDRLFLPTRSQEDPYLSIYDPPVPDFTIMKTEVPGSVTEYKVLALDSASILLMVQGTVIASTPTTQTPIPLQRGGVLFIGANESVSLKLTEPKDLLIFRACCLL", "assay": "MPI inhibition at elevated mannose 6-phosphate – biochemical, fluorescence intensity, high mannose 6-phosphate, primary screen (AID 1220)"}, "Vero": {"system": "Vero", "assay": "viability of Vero cells under compound – cytotoxicity control for flavivirus capping enzyme inhibitors (AID 588742)", "assay_type": "functional", "conditions": "Chlorocebus sabaeus"}, "[8]": {"target": "T3, Rac GTPase-activating protein 1 (Homo sapiens, UniProt Q9H0H5)", "T3 sequence (Q9H0H5 whole entry)": "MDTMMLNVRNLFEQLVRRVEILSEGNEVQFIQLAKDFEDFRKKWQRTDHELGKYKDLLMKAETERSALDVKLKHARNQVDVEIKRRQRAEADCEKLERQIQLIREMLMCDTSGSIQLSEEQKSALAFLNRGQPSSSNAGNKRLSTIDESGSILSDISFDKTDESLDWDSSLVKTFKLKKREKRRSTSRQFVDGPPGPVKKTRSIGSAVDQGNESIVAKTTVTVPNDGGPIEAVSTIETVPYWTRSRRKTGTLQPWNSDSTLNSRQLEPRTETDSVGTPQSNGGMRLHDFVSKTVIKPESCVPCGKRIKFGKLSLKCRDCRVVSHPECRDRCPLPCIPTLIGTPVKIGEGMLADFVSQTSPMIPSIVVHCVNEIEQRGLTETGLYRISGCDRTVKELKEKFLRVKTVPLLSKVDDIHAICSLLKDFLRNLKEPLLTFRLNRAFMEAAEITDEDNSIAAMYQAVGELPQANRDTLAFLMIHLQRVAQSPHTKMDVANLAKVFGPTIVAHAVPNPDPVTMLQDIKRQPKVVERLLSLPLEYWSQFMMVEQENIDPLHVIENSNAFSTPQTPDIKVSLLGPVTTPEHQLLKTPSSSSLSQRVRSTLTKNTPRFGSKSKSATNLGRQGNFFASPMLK", "assay": "blockers of MgcRacGAP-driven Rac1 GTP hydrolysis – biochemical, ADP Hunter fluorescence, primary and confirmatory, confirmation (AID 624330)", "assay_type": "functional"}}, "note": "Calls of active or inactive are those of the source.", "data": [{"smiles": "COc1ccc(C(=O)O/N=C(/c2ccccc2)c2ccncc2)cc1OC", "values": [{"measurement": "IC50", "setting": "H9c2", "value": "6.72 µM (active)"}]}, {"smiles": "O=C(O)c1cccc(Cn2c(Cl)c(/C=N/NC(=O)c3ccccc3Cl)sc2=O)c1", "values": [{"measurement": "IC50", "setting": "Leucine aminopeptidase", "value": "34.1 µM (active)"}]}, {"smiles": "c1cncc(-c2nc(NCC3COc4ccccc4O3)c3ccccc3n2)c1", "note": "(stereo unspecified)", "values": [{"measurement": "CC50", "setting": "[1]", "value": "10.2 µM (active)"}, {"measurement": "IC50", "setting": "H9c2", "value": "> 79 µM (inactive)"}]}, {"smiles": "O=C(C1CCCC1)N1CC(=O)N2[C@H](CO)[C@H](c3ccc(-c4cccnc4)cc3)[C@H]2C1", "values": [{"measurement": "AC50", "setting": "[2]", "value": "2.33 µM (active)"}, {"measurement": "AC50", "setting": "[3]", "value": "1.47 µM (active)"}, {"measurement": "AC50", "setting": "[4]", "value": "1.11 µM (active)"}, {"measurement": "AC50", "setting": "[5]", "value": "1.85 µM (active)"}]}, {"smiles": "CCC1CN2CCC1CC2", "note": "(stereo unspecified)", "values": [{"measurement": "GI50", "setting": "P388/ADR", "value": "> 100 µM (inactive)"}, {"measurement": "GI50", "setting": "SN12K1", "value": "> 100 µM (inactive)"}, {"measurement": "GI50", "setting": "P388", "value": "80.4 µM (inactive)"}]}, {"smiles": "O=C(/C=C/c1ccc(Cl)c([N+](=O)[O-])c1)Nc1cccnc1", "values": [{"measurement": "IC50", "setting": "H9c2", "value": "> 79 µM (inactive)"}]}, {"smiles": "Cc1ccc(N2C(=O)C(Cl)=C(N3CCN(c4ccccc4)CC3)C2=O)cc1", "values": [{"measurement": "IC50", "setting": "[6]", "value": "> 50 µM (inconclusive)"}]}, {"smiles": "COc1ccccc1S(=O)(=O)N(C)C[C@H]1OCc2ccccc2-c2c(n(C)c3ccccc23)C(=O)N([C@@H](C)CO)C[C@@H]1C", "values": [{"measurement": "AC50", "setting": "[2]", "value": "2.03 µM (active)"}, {"measurement": "AC50", "setting": "[3]", "value": "2.1 µM (active)"}, {"measurement": "AC50", "setting": "[4]", "value": "1.09 µM (active)"}, {"measurement": "AC50", "setting": "[5]", "value": "1.02 µM (active)"}]}, {"smiles": "O=C(Nc1ccc(C2=NCCN2)cc1)c1cncc(C(=O)Nc2ccc(C3=NCCN3)cc2)c1", "values": [{"measurement": "GI50", "setting": "P388/ADR", "value": "> 100 µM (inactive)"}, {"measurement": "GI50", "setting": "SN12K1", "value": "> 100 µM (inactive)"}, {"measurement": "GI50", "setting": "P388", "value": "24.2 µM (inactive)"}]}, {"smiles": "O=C(O)C1=CC(=C(c2ccc(O)c(C(=O)O)c2)c2ccc(O)c(C(=O)O)c2)C=CC1=O", "note": "[AURINTRICARBOXYLIC ACID]", "values": [{"measurement": "IC50", "setting": "Large T antigen", "value": "1.93 µM (active)"}, {"measurement": "AC50", "setting": "Cytochrome P450 2D6", "value": "39.8 µM (inconclusive)"}]}, {"smiles": "C[C@H]1[C@@H]2C[C@@H]3O[C@@]34[C@H]3CCC5Cc6nc7c(nc6C[C@@]5(C)[C@]3(O)CC(=O)[C@@]24CO[C@]12OC(C)(C)C[C@@H]2O)CC1CC[C@@H]2C3=C[C@H]4O[C@@]5(OC(C)(CO)C[C@@H]5O)[C@H](C)[C@@]4(O)[C@]3(C)[C@@H](O)CC2[C@]1(C)C7", "note": "(stereo partly specified)", "values": [{"measurement": "GI50", "setting": "P388/ADR", "value": "0.0718 µM (active)"}, {"measurement": "GI50", "setting": "SN12K1", "value": "0.00221 µM (active)"}, {"measurement": "GI50", "setting": "P388", "value": "0.0017 µM (active)"}]}, {"smiles": "COc1ccc2c(c1)-c1nc(/N=C/c3ccccc3O)sc1CC2", "values": [{"measurement": "IC50", "setting": "[7]", "value": "> 50 µM (not active)"}, {"measurement": "CC50", "setting": "Vero", "value": "> 40 µM (active)"}, {"measurement": "IC50", "setting": "[8]", "value": "20 µM (active)"}]}, {"smiles": "COC(=O)[C@@H]1c2cc3c(c(O)c2[C@@H](OC)C[C@@]1(C)O)C(=O)c1c(O)cc2c(c1C3=O)OC1O[C@@]2(C)[C@H](O)[C@@H](N(C)C)[C@@H]1O", "values": [{"measurement": "GI50", "setting": "P388/ADR", "value": "1.29 µM (inactive)"}, {"measurement": "GI50", "setting": "SN12K1", "value": "0.352 µM (active)"}, {"measurement": "GI50", "setting": "P388", "value": "0.092 µM (active)"}]}]}
